Source: patent publication US20030114445A1, “N3-substituted 6-anilinopyrimidines and methods to treat-Gram-positive bacterial and mycoplasmal infections” (priority 2001, published 2003)
≈ marks a conversion by molar mass, not a printed value. Like-named read-outs stand apart in the source and are kept apart here.

Experiments:
S. aureus (Smith strain) [1] = assay: Efficacy, ip dosing of mice infected with S. aureus; type: in vivo; conditions: suspensions in saline, 5 animals, FIG. 2
Description: Compounds 12, 19, 26, and 29 were given by the intraperitoneal (ip) route as suspensions in saline to mice previously infected with S. aureus (Smith strain). Vancomycin was used as a positive drug control and saline was used as a negative vehicle control.

B.subtilis pol IIIC = B.subtilis pol IIIC (Bacillus subtilis, UniProt P13267); assay: biochemical
Experimental: DNA pol activity was assayed as described in Barnes et al., Nuc. Acids Res., 6:1203-19 (1979), using activated “nicked” calf-thymus DNA as template primer, 10 pM [^3H-methyl]-dTTP as the labelled dNTP substrate, and dATP, dCTP, and dGTP at 25 μM each.
Inhibitory activity of the compounds is determined by measuring the ability of the agent to inhibit enzyme-catalyzed incorporation of [^3H]-dTMP into nicked calf thymus DNA in the absence of the competitor dGTP or dATP (“truncated assay”) (see G. E. Wright and N. C. Brown, Inhibition of Bacillus subtilis DNA Polymerase III by Arylhydrazinopyrimidines: Novel Properties of 2-Thiouracil Derivatives, Biochim. Biophys. Acta 432:37-48 (1976)). Purified pol IIIC is added to a buffered solution containing Mg^2+, DTT, glycerol, nicked calf thymus DNA, saturating concentrations of dATP, dCTP, dTTP and [^3H]-dTTP. Reaction mixtures are incubated at 30° C. for 10 minutes, quenched and filtered, and radioactivity in the acid-insoluble material measured by scintillation counting. Experiments are done in triplicate. Inhibitors are assayed by addition of several dilutions of a stock solution of inhibitor (DMSO or water, depending on solubility) before enzyme addition. […] The truncated assay, i.e. exclusion of the competitive substrate dGTP or dATP, depending upon whether the compound is a uracil derivative or an isocytosine derivative, respectively, allows for the direct determination of apparent inhibitor constants (K,) in this assay system.

B. subtilis = assay: Inhibition of bacterial growth on agar plates (MIC); type: cell-based; conditions: Bacillus subtilis, 37° C., 24 hours
Experimental: (§1) Each compound is assayed against a panel of Bacillus, Enterococcus and Staphylococcus, and a Gram-negative bacterium Escherichia coli as negative control, grown in appropriate plate media solidified with 1.3% agar-agar. Stock solutions of the compounds in dimethylsulfoxide or water, depending on solubility, are added to sterile medium at a temperature of 60° C. […] One tenth mL of diluted bacteria containing 500-1000 colony-forming units (CFU) are plated and spread, and the plates incubated at 37° C. for 24 hours. MIC (minimum inhibitory concentration) is equivalent to the lowest concentration at which growth, i.e. colony formation, is not observed.

E. fecalis = assay: as above; type: cell-based; conditions: 37° C., 24 hours
Experimental: as §1

E. fecium = assay: as above; type: cell-based; conditions: 37° C., 24 hours
Experimental: as §1

S.aureus (Smith) = assay: as above; type: cell-based; conditions: Staphylococcus aureus, 37° C., 24 hours
Experimental: as §1

Water solubility = type: physicochemical; conditions: 25° C. stated for Compound 35
Description: The compounds described herein have increased water solubility; some of the compounds can form salts, such as with inorganic or organic acids or with alkali metal bases, thus greatly increasing their solubilities. […] The improved water solubilities are a distinct advantage in formulation and in dosing of animals for testing, and for ultimate therapeutic use in humans.

[2] = Pharmacokinetics in mice (plasma concentration by HPLC); type: in vivo; conditions: saline solution
Description: Compound 59 was given to mice in simple saline solutions by various routes—subcutaneous (sc), intravenous (iv), and orally (po). High performance liquid chromatography (HPLC) on a reverse phase C 18 column was used to monitor the concentration of the compound in animal plasma, and the results were plotted as a function of time, as shown in FIG. 1.
Tmax, time to peak concentration; Cmax, peak concentration; T½, half-life; AUC(0-t), area under the curve, from 0 to time t; AUC(0-60), area under the curve, from 0 to 60 minutes; Vd, volume of distribution; Cl, clearance.

S. aureus (Smith strain) [3] = assay: Efficacy, sc dosing of mice infected ip with S. aureus; type: in vivo; conditions: Compound 59 given sc, relative to vehicle control, FIG. 3
Description: Compound 59 was give by the sc route to mice infected by the ip route with S. aureus (Smith strain).

B.subtilis pol IIIC, sequence (P13267 whole entry): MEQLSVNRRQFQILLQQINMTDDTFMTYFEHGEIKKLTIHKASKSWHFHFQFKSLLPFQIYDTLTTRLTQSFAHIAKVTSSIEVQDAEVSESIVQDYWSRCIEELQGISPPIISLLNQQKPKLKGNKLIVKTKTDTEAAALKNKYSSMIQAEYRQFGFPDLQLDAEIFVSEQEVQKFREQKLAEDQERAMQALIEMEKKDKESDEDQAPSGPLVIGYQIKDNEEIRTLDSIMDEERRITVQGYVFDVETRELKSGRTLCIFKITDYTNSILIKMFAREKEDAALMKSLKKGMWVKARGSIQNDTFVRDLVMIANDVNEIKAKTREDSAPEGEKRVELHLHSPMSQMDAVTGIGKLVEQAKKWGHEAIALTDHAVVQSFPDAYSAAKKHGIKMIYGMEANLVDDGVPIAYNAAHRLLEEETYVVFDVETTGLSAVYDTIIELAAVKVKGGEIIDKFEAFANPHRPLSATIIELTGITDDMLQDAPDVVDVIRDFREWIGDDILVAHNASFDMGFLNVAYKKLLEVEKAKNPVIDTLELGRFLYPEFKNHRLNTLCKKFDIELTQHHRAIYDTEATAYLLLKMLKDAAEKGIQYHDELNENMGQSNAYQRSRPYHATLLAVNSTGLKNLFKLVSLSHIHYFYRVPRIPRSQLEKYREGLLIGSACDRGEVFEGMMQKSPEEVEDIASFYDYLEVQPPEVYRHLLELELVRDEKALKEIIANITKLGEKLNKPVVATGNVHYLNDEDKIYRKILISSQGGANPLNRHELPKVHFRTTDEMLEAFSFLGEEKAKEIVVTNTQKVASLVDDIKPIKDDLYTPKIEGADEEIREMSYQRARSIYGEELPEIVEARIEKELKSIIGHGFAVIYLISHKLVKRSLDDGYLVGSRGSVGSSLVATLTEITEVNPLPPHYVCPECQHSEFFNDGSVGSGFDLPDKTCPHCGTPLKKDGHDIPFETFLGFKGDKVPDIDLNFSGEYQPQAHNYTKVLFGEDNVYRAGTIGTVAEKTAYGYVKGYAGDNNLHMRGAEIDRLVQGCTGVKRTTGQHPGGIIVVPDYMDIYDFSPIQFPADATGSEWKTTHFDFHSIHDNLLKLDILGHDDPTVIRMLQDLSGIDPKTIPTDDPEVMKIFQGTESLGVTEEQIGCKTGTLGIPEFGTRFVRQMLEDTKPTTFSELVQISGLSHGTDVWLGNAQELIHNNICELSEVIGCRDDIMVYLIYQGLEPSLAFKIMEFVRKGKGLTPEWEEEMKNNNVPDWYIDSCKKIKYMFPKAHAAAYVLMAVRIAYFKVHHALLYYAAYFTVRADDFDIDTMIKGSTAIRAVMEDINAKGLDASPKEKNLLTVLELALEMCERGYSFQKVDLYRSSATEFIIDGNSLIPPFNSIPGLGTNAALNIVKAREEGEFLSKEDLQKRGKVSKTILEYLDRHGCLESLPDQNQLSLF

## CCc1cc(Nc2cc(=O)n(CCCCCO)c(=O)[nH]2)ccc1C [Compound 26, 3-(5-Hydroxypentyl)-6-(3-ethyl-4-methylanilino)uracil]
S. aureus (Smith strain) [1]
  animals protected: 1 of the 5

## CCc1cc(Nc2cc(=O)n(CCOCCO)c(=O)[nH]2)ccc1C [Compound 29, 3-[2-(2-Hydroxyethoxy)ethyl]-6-(3-ethyl-4-methylanilino)uracil]
B.subtilis pol IIIC
  Ki: 125 nM
B. subtilis
  MIC: < 1.25 µg/mL
E. fecalis
  MIC: 5 µg/mL (≈ 15 µM)
E. fecium
  MIC: 5 µg/mL (≈ 15 µM)
S.aureus (Smith)
  MIC: 5 µg/mL (≈ 15 µM)
S. aureus (Smith strain) [1]
  animals protected: 4 of the 5

## CCc1cc(Nc2cc(=O)n(CCCCN3CCOCC3)c(=O)[nH]2)ccc1C [Compound 35, 3-[4-(N-morpholino)butyl]-6-(3-ethyl-4-methylanilino)uracil]
B.subtilis pol IIIC; truncated assay, apparent inhibitor constant, read-out: K1 B.subtilis pol IIIC
  Ki: 48 nM
B. subtilis
  MIC: 2.5 µg/mL (≈ 6.47 µM)
E. fecalis
  MIC: 5 µg/mL (≈ 12.9 µM)
E. fecium
  MIC: 2.5 µg/mL (≈ 6.47 µM)
S.aureus (Smith)
  MIC: 5 µg/mL (≈ 12.9 µM)
Water solubility
  solubility: < 1 mg/mL

## CCc1cc(Nc2cc(=O)n(CCCCN3CCOCC3)c(=O)[nH]2)ccc1C.Cl [Compound 59, 3-[4-(N-morpholino)butyl]-6-(3-ethyl-4-methylanilino)uracil hydrochloride]
Water solubility
  solubility: > 60 mg/mL
[2]; mouse, plasma, iv, 20 mg/kg, iv, 20 mg/kg, 0-120, read-out: AUC(0-t) (converted)
  AUC(0-t): 3900 ng·h/mL
[2]; mouse, plasma, iv, 20 mg/kg, iv, 20 mg/kg, read-out: AUC(0-60) (converted)
  AUC(0-t): 3400 ng·h/mL
[2]; mouse, plasma, iv, 20 mg/kg
  Cmax: 27400 ng/mL
  clearance: 77 mL/min/kg
  half-life: 39 min
[2]; mouse, plasma, iv, 20 mg/kg, ncm fit
  Tmax: 0 min
[2]; mouse, plasma, iv, 20 mg/kg, read-out: Vd
  Vd: 4.3 L/kg
[2]; mouse, plasma, po, read-out: oral bioavailability (absorbed from the po route)
  bioavailability: ~50%
[2]; mouse, plasma, sc, 20 mg/kg
  Cmax: 4600 ng/mL
  Tmax: 5 min
  half-life: 149 min
[2]; mouse, plasma, sc, 20 mg/kg, sc, 20 mg/kg, (0-180), read-out: AUC(0-t) (converted)
  AUC(0-t): 6770 ng·h/mL
[2]; mouse, plasma, sc, 20 mg/kg, sc, 20 mg/kg, read-out: AUC(0-60) (converted)
  AUC(0-t): 3330 ng·h/mL
[2]; mouse, plasma, sc, 200 mg/kg
  Cmax: 15000 ng/mL
  Tmax: 30 min
  half-life: 132 min
[2]; mouse, plasma, sc, 200 mg/kg, sc, 200 mg/kg, (0-180), read-out: AUC(0-t) (converted)
  AUC(0-t): 26900 ng·h/mL
[2]; mouse, plasma, sc, 200 mg/kg, sc, 200 mg/kg, read-out: AUC(0-60) (converted)
  AUC(0-t): 10600 ng·h/mL
[2]; mouse, plasma, sc, 400 mg/kg
  Cmax: 24100 ng/mL
  Tmax: 30 min
  half-life: 373 min
[2]; mouse, plasma, sc, 400 mg/kg, sc, 400 mg/kg, (0-360), read-out: AUC(0-t) (converted)
  AUC(0-t): 75000 ng·h/mL
[2]; mouse, plasma, sc, 400 mg/kg, sc, 400 mg/kg, read-out: AUC(0-60) (converted)
  AUC(0-t): 19800 ng·h/mL
[2]; sc, 20 mg/kg
  Cl: 30.2 mL/min/kg
  Vd: 6.5 L/kg
[2]; sc
  absorption by the sc route: completely absorbed
S. aureus (Smith strain) [3]
  survival of infected mice: prolonged the survival time of mice relative to vehicle control

## CCc1cc(Nc2cc(=O)n(CCCCNCCCCn3cc(C(=O)O)c(=O)c4cc(F)c(Cl)cc43)c(=O)[nH]2)ccc1C [Compound 74, 3-{4-[4-(3-carboxy-4-oxo-6-fluoro-7-chloroquinoline-1-yl)butylamino]butyl}-6-(3-ethyl-4-methylanilino)uracil]
B.subtilis pol IIIC
  Ki: 63 nM
B. subtilis
  MIC: 20 µg/mL (≈ 32.7 µM)
E. fecalis
  MIC: 20 µg/mL (≈ 32.7 µM)
E. fecium
  MIC: 20 µg/mL (≈ 32.7 µM)
S.aureus (Smith)
  MIC: 20 µg/mL (≈ 32.7 µM)

## CCc1cc(Nc2cc(=O)n(CCCCCN3CC=C(c4ccc(F)cc4)CC3)c(=O)[nH]2)ccc1C [Compound 75]
B.subtilis pol IIIC
  Ki: 98 nM
B. subtilis
  MIC: 5 µg/mL (≈ 10.2 µM)
E. fecalis
  MIC: 5 µg/mL (≈ 10.2 µM)
E. fecium
  MIC: 5 µg/mL (≈ 10.2 µM)
S.aureus (Smith)
  MIC: 5 µg/mL (≈ 10.2 µM)

## CCc1cc(Nc2cc(=O)n(CCCCCN3CC=C(c4ccc(Cl)cc4)CC3)c(=O)[nH]2)ccc1C [Compound 76, 3-{5-[1-(4-(4-chlorophenyl)-1,2,3,6-tetrahydropyridinyl)]pentyl}-6-(3-ethyl-4-methylanilino)uracil]
B.subtilis pol IIIC
  Ki: 87 nM
B. subtilis
  MIC: 5 µg/mL (≈ 9.86 µM)
E. fecalis
  MIC: 80 µg/mL (≈ 158 µM)
E. fecium
  MIC: 80 µg/mL (≈ 158 µM)
S.aureus (Smith)
  MIC: 5 µg/mL (≈ 9.86 µM)

## CCc1cc(Nc2cc(=O)n(CCCCCNC(=O)c3cc4ccccc4s3)c(=O)[nH]2)ccc1C [Compound 77, 3-[5-(2-benzo[b]thiophenecarboxamido)pentyl]-6-(3-ethyl-4-methylanilino)uracil]
B.subtilis pol IIIC
  Ki: 480 nM
B. subtilis
  MIC: 80 µg/mL (≈ 163 µM)
E. fecalis
  MIC: 80 µg/mL (≈ 163 µM)
E. fecium
  MIC: 80 µg/mL (≈ 163 µM)
S.aureus (Smith)
  MIC: 80 µg/mL (≈ 163 µM)

## CCOC(=O)C1CN(CCCCCn2c(=O)cc(Nc3ccc(C)c(CC)c3)[nH]c2=O)CCC1=O (stereo not drawn) [Compound 78, 3-{5-(3-ethoxycarbonyl-4-oxopiperidinyl)pentyl}-6-(3-ethyl-4-methylanilino)uracil]
B.subtilis pol IIIC
  Ki: 250 nM
B. subtilis
  MIC: 80 µg/mL (≈ 165 µM)
E. fecalis
  MIC: 80 µg/mL (≈ 165 µM)
E. fecium
  MIC: 80 µg/mL (≈ 165 µM)
S.aureus (Smith)
  MIC: 80 µg/mL (≈ 165 µM)

## CCc1cc(Nc2cc(=O)n(CCCCCNC[C@@H]3CCN(C(=O)OC(C)(C)C)C3)c(=O)[nH]2)ccc1C [Compound 79, 3(S)-{5-[(N-tert-butoxycarbonylpyrrolidin-3-yl)methylamino]pentyl}-6-(3-ethyl-4-methylanilino)uracil]
B.subtilis pol IIIC
  Ki: 120 nM
B. subtilis
  MIC: 20 µg/mL (≈ 38.9 µM)
E. fecalis
  MIC: 40 µg/mL (≈ 77.9 µM)
E. fecium
  MIC: 40 µg/mL (≈ 77.9 µM)
S.aureus (Smith)
  MIC: 20 µg/mL (≈ 38.9 µM)

## CCc1cc(Nc2cc(=O)n(CCCCN3CC=C(c4ccc5c(c4)OCO5)CC3)c(=O)[nH]2)ccc1C [Compound 80, 3-{4-[4-(3,4-dioxomethylenephenyl-1,2,3,6-tetrahydropyridinyl)]butyl}-6-(3-ethyl-4-methylanilino)uracil]
B.subtilis pol IIIC
  Ki: 24 nM
B. subtilis
  MIC: 2.5 µg/mL (≈ 4.97 µM)
E. fecalis
  MIC: 5 µg/mL (≈ 9.95 µM)
E. fecium
  MIC: 5 µg/mL (≈ 9.95 µM)
S.aureus (Smith)
  MIC: 10 µg/mL (≈ 19.9 µM)

## CCc1cc(Nc2cc(=O)n(CCCCN3CC=C(c4ccc(C)c(C)c4)CC3)c(=O)[nH]2)ccc1C [Compound 81]
B.subtilis pol IIIC
  Ki: 34 nM
B. subtilis
  MIC: 1.25 µg/mL (≈ 2.57 µM)
E. fecalis
  MIC: 10 µg/mL (≈ 20.5 µM)
E. fecium
  MIC: 10 µg/mL (≈ 20.5 µM)
S.aureus (Smith)
  MIC: 20 µg/mL (≈ 41.1 µM)

## CCc1cc(Nc2cc(=O)n(CCCCN3CC=C(c4ccc(F)c(C)c4)CC3)c(=O)[nH]2)ccc1C [Compound 82]
B.subtilis pol IIIC
  Ki: 29 nM
B. subtilis
  MIC: 10 µg/mL (≈ 20.4 µM)
E. fecalis
  MIC: 20 µg/mL (≈ 40.8 µM)
E. fecium
  MIC: 20 µg/mL (≈ 40.8 µM)
S.aureus (Smith)
  MIC: 20 µg/mL (≈ 40.8 µM)

## CCc1cc(Nc2cc(=O)n(CCCCO)c(=O)[nH]2)ccc1C [HB-EMAU, 3-(4-hydroxybutyl)-6-(3-ethyl-4-methylanilino)uracil, reference compound]
B.subtilis pol IIIC
  Ki: 70 nM
B. subtilis
  MIC: < 1.25 µg/mL
E. fecalis
  MIC: 5 µg/mL (≈ 15.8 µM)
E. fecium
  MIC: 5 µg/mL (≈ 15.8 µM)
S.aureus (Smith)
  MIC: 5 µg/mL (≈ 15.8 µM)

## CN[C@H](CC(C)C)C(=O)N[C@H]1C(=O)N[C@@H](CC(N)=O)C(=O)N[C@H]2C(=O)N[C@H]3C(=O)N[C@H](C(=O)N[C@H](C(=O)O)c4cc(O)cc(O)c4-c4cc3ccc4O)[C@H](O)c3ccc(c(Cl)c3)Oc3cc2cc(c3O[C@@H]2O[C@H](CO)[C@@H](O)[C@H](O)[C@H]2O[C@H]2C[C@](C)(N)[C@H](O)[C@H](C)O2)Oc2ccc(cc2Cl)[C@H]1O [Vancomycin, reference compound]
S. aureus (Smith strain) [1]
  animals protected: protected all animals
S. aureus (Smith strain) [3]
  survival of infected mice: protected the animals from this infection
